Target: NAD-dependent protein deacylase sirtuin-6 (Homo sapiens, UniProt Q8N6T7)
Experiment: Fluorimetric Assay
Description: Inhibitory constants (Ki) and IC50 values were determined under saturating substrate conditions by using a fluorimetric assay (components were purchased separately). […] Sirtuin deacetylation of the substrate renders the fluorophore-substrate bond susceptible to treatment with […]. Trypsin cleavage releases the fluorophore, resulting in an increase in fluorescence. Fluorescence intensity was measured on a Synergy HT Multi-Mode microplate fluorescence reader.

Chain of NAD-dependent protein deacylase sirtuin-6 (Q8N6T7 whole entry): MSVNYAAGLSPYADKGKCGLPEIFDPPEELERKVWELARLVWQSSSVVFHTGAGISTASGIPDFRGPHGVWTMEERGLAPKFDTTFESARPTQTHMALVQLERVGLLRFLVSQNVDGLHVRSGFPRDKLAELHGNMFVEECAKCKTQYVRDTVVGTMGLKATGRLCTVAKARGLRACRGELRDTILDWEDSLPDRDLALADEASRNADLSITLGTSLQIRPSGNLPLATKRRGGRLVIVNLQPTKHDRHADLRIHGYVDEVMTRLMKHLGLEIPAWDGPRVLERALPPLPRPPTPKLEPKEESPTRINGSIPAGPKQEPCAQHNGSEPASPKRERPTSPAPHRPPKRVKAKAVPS

| IC50 [µM] | Structure (SMILES) |
| --- | --- |
| 927 | O=C(O)c1cnccn1 |
| 417 | NC(=O)c1cnccn1 [Pyrazinamide] |
